Experimental data from US20260169002A1, “PROFILING NEWLY-SYNTHESIZED GLYCOPROTEINS AS MOLECULAR SIGNATURES OF INJURY IN DONOR ORGANS” (Carnegie Mellon University, priority 2022, published 2026).

Experiments:
[1] = test system: post-EVLP lungs; test: LC-MS/MS proteomic analysis of Input and Eluate samples of lungs with or without Ac4GalNAz during EVLP; set-up: species or system rat; conditions: before affinity enrichment
Method: Chemoselective enrichment of azide-tagged proteins: Cellular protein extracts of the lungs were reacted with Alkyne-PEG4-desthiobiotin (Click Chemistry Tools, 1109) under CuAAC conditions. Proteins were precipitated with four volumes of ice-cold acetone at −20° C. overnight to remove unreacted Alkyne-PEG4-desthiobiotin. The protein pellets were air-dried and re-dissolved in 2% SDS in PBS (pH 7.40), and then saved as Input samples. Following quantification by BCA, an aliquot of each Input sample containing 1.7 mg of protein was introduced to 75 μL streptavidin-conjugated resin (Thermo Fisher Scientific; 53117) for desthiobiotinylated protein pull-down. Following a 3-hour binding period, Supernatants were collected and the resins were washed 7 times for 15 minutes each with 2% SDS, 40 mM additional NaCl in PBS (pH 7.40). The pulled-down proteins were eluted with 30 mM biotin in 2% SDS, 40 mM additional NaCl in PBS (pH 7.40) (Eluting buffer) at room temperature for 1 hour. […] Protein concentrations of the Eluate samples were determined by BCA assay, and the eluates were then stored at −80° C. for SDS-PAGE and proteomic analysis. […]
Samples were analyzed using a UPLC-MS/MS system consisting of an Easy-nLC 1200 ultra-high-pressure liquid chromatography system and an Orbitrap Fusion Lumos mass spectrometer (Thermo Fisher Scientific). […]

[2] = test system: human lungs; test: Bioorthogonal azide labeling during EVLP, histological detection in human lung sections; conditions: Ac4GalNAz vs vehicle in perfusate, 6 hour EVLP
Method: Immunostaining: Rehydrated rat or human lung sections were incubated with antigen unmasking solution at 95° C. for 20 minutes. After cooling down, the sections were reacted with Alkyne-PEG4-biotin (Click Chemistry Tools, TA105) under copper-catalyzed cycloaddition (CuAAC) conditions (Rostovtsev et al., 2002, Angewandte Chemie., 114:2708-2711), or reacted without copper catalyst as a control. All samples were blocked with 1% bovine serum albumin (BSA) in PBS for 20 minutes and incubated with a primary antibody against Laminin (Abcam, Cambridge, UK; ab11575) at a dilution of 1:500. The slides were then stained with streptavidin conjugated to ALEXA FLUOR®-647 (Invitrogen, S21374) and Donkey-anti-Rabbit IgG conjugated to ALEXA FLUOR®-488 (Invitrogen, A32790) at a dilution of 1:500. All slides were mounted with DAPI-containing Fluoromount solution (SouthernBiotech, Birmingham, AL; 0100-20). Single-field images were taken using confocal microscopy and stitched images were taken by EVOS FL Auto 2 Imaging System (Thermo Fisher Scientific, Waltham, MA). For quantification, three random fields were taken in each lung section. Azide >biotin intensities for each field taken were measured by Fiji software (Schindelin et al., supra). Laminin channels were converted to 8-bit and intensities were measured for Laminin coverage areas. […]

[3] = test system: healthy rat lungs; test: Effect of Ac4GalNAz probe on lung graft quality during EVLP (morphology, physiology); conditions: 100 μM Ac4GalNAz vs vehicle perfusion, monitored every hour, 4-hour EVLP
Method: (§1) Ex vivo lung perfusion (EVLP) in rats: EVLP was performed using a commercially available rodent EVLP system (IL-2 Isolated Perfused Rat or Guinea Pig Lung System; Harvard Apparatus, Holliston, MA) as described elsewhere (Noda et al., 2014, Eur J Cardio-Thorac Surg., 45:e54-60; and (Noda et al., 2021, Sci Rep., 11:12265). Acellular Steen solution (XVIVO Perfusion AB, Denver, CO) was used for perfusate and lungs were medicated with methylprednisolone (SOLU-MEDROL®; Pfizer, Inc., New York, NY) and cephalosporin (Cefazolin; WG Critical Care LLC, Paramus, NJ) equally in all experimental groups using EVLP. […] Pulmonary artery pressure, peak airway pressure, and airway flow were monitored continuously, and dynamic lung compliance and pulmonary vascular resistance were also analyzed. […]
Airspace morphology evaluation: Following EVLP, the lungs receiving Ac4GaIN Az or vehicle control administration were fixed in Formalin, embedded in paraffin, and sectioned to a thickness of 5 μm. […] Horizontal and vertical mean linear intercepts of each image were measured by Fiji software (Schindelin et al., 2012, Exp Rev Resp Med., 11:119-128), following a protocol described elsewhere (Crowley et al., 2019, BMC Pulm Med., 19:206) The mean values of horizontal and vertical mean linear intercepts of the three images were calculated as the estimated airspace size average of each lung section.

[4] = test system: rat lungs; test: Bioorthogonal azide labeling of NewS-glycoproteins during EVLP, histological detection; conditions: 100 μM Ac4GalNAz vs 0.1% DMSO in Steen solution, 4-hour EVLP
Method: as §1
Immunostaining: Rehydrated rat or human lung sections were incubated with antigen unmasking solution at 95° C. for 20 minutes. […] For quantification, three random fields were taken in each lung section. Azide >biotin intensities for each field taken were measured by Fiji software (Schindelin et al., supra). Laminin channels were converted to 8-bit and intensities were measured for Laminin coverage areas. […]

SMILES: CC(=O)OC[C@H]1OC(OC(C)=O)[C@H](NC(=O)CN=[N+]=[N-])[C@@H](OC(C)=O)[C@H]1OC(C)=O (some centres unmarked) [Ac4GalNAz, N-azidoacetylgalactosamine-tetraacylated]
- Effect on overall lung proteome (Input samples, Pearson correlation, hierarchical clustering) [1]: did not significantly alter
- Azide labeling of lung tissue (azide→biotin fluorescence) [2]: also was observed
- Lung compliance during EVLP [3]: no significant differences
- Pulmonary vascular resistance during EVLP [3]: no significant differences
- Azide labeling of lung tissue (azide→biotin fluorescence) [4]: robust and specific azide labeling
